Measurements from ChEMBL document CHEMBL2346657, “Synthesis of novel 2-amino-4-(5'-substituted 2'-phenyl-1H-indol-3'-yl)-6-aryl-4H-pyran-3-carbonitrile derivatives as antimicrobial and antioxidant agents” (2013).
The source made the active and inactive calls. Unless noted, the rule behind the calls is not given here.

Assays:
Assay type in all cases: functional
Aspergillus oryzae [1] = test: Antimicrobial activity against Aspergillus oryzae MTCC 3567 at 500 ug/ml after 72 hrs by cup plate method; conditions: MTCC 3567, 72 h, read-out: IZ
Escherichia coli [2] = test: Antimicrobial activity against Escherichia coli MTCC 723 at 1000 ug/ml after 24 hrs by cup plate method; conditions: MTCC 723, 24 h, read-out: IZ
[3] = Antioxidant activity assessed as metal chelating activity by measuring inhibition of ferrozine-Fe2+ complex formation at 25 to 100 ug/ml
Aspergillus terreus [4] = test: Antimicrobial activity against Aspergillus terreus MTCC 1782 at 750 ug/ml after 72 hrs by cup plate method; conditions: MTCC 1782, 72 h, read-out: IZ
Aspergillus niger [5] = test: Antimicrobial activity against Aspergillus niger MTCC 281 at 1000 ug/ml after 72 hrs by cup plate method; conditions: MTCC 281, 72 h, read-out: IZ
Staphylococcus aureus [6] = test: Antimicrobial activity against Staphylococcus aureus ATCC 29513 at 1000 ug/ml after 24 hrs by cup plate method; conditions: ATCC 29513, 24 h, read-out: IZ
Staphylococcus aureus [7] = test: Antimicrobial activity against Staphylococcus aureus ATCC 29513 at 750 ug/ml after 24 hrs by cup plate method; conditions: ATCC 29513, 24 h, read-out: IZ
Aspergillus terreus [8] = test: Antimicrobial activity against Aspergillus terreus MTCC 1782 at 1000 ug/ml after 72 hrs by cup plate method; conditions: MTCC 1782, 72 h, read-out: IZ
Aspergillus flavus [9] = test: Antimicrobial activity against Aspergillus flavus MTCC 1973 at 500 ug/ml after 72 hrs by cup plate method; conditions: MTCC 1973, 72 h, read-out: IZ
Aspergillus flavus [10] = test: Antimicrobial activity against Aspergillus flavus MTCC 1973 at 1000 ug/ml after 72 hrs by cup plate method; conditions: MTCC 1973, 72 h, read-out: IZ
Aspergillus flavus [11] = test: Antimicrobial activity against Aspergillus flavus MTCC 1973 at 750 ug/ml after 72 hrs by cup plate method; conditions: MTCC 1973, 72 h, read-out: IZ
Staphylococcus aureus [12] = test: Antimicrobial activity against Staphylococcus aureus ATCC 29513 at 500 ug/ml after 24 hrs by cup plate method; conditions: ATCC 29513, 24 h, read-out: IZ
Aspergillus niger [13] = test: Antimicrobial activity against Aspergillus niger MTCC 281 at 500 ug/ml after 72 hrs by cup plate method; conditions: MTCC 281, 72 h, read-out: IZ
Klebsiella pneumoniae [14] = test: Antimicrobial activity against Klebsiella pneumoniae NCTC 13368 at 750 ug/ml after 24 hrs by cup plate method; conditions: NCTC 13368, 24 h, read-out: IZ
Pseudomonas aeruginosa [15] = test: Antimicrobial activity against Pseudomonas aeruginosa MTCC 1688 at 750 ug/ml after 24 hrs by cup plate method; conditions: MTCC 1688, 24 h, read-out: IZ
Aspergillus terreus [16] = test: Antimicrobial activity against Aspergillus terreus MTCC 1782 at 500 ug/ml after 72 hrs by cup plate method; conditions: MTCC 1782, 72 h, read-out: IZ
Aspergillus oryzae [17] = test: Antimicrobial activity against Aspergillus oryzae MTCC 3567 at 750 ug/ml after 72 hrs by cup plate method; conditions: MTCC 3567, 72 h, read-out: IZ
Pseudomonas aeruginosa [18] = test: Antimicrobial activity against Pseudomonas aeruginosa MTCC 1688 at 1000 ug/ml after 24 hrs by cup plate method; conditions: MTCC 1688, 24 h, read-out: IZ
Klebsiella pneumoniae [19] = test: Antimicrobial activity against Klebsiella pneumoniae NCTC 13368 at 500 ug/ml after 24 hrs by cup plate method; conditions: NCTC 13368, 24 h, read-out: IZ
Aspergillus oryzae [20] = test: Antimicrobial activity against Aspergillus oryzae MTCC 3567 at 1000 ug/ml after 72 hrs by cup plate method; conditions: MTCC 3567, 72 h, read-out: IZ
Klebsiella pneumoniae [21] = test: Antimicrobial activity against Klebsiella pneumoniae NCTC 13368 at 1000 ug/ml after 24 hrs by cup plate method; conditions: NCTC 13368, 24 h, read-out: IZ
Escherichia coli [22] = test: Antimicrobial activity against Escherichia coli MTCC 723 at 500 ug/ml after 24 hrs by cup plate method; conditions: MTCC 723, 24 h, read-out: IZ
Pseudomonas aeruginosa [23] = test: Antimicrobial activity against Pseudomonas aeruginosa MTCC 1688 at 500 ug/ml after 24 hrs by cup plate method; conditions: MTCC 1688, 24 h, read-out: IZ
[24] = Antioxidant activity assessed as ferric ion reducing activity at 100 ug/ml by FRAP assay
Aspergillus niger [25] = test: Antimicrobial activity against Aspergillus niger MTCC 281 at 750 ug/ml after 72 hrs by cup plate method; conditions: MTCC 281, 72 h, read-out: IZ
Escherichia coli [26] = test: Antimicrobial activity against Escherichia coli MTCC 723 at 750 ug/ml after 24 hrs by cup plate method; conditions: MTCC 723, 24 h, read-out: IZ

Row | Compound | zone of inhibition at 500 µg/mL (Aspergillus oryzae [1]) | zone of inhibition at 1000 µg/mL (Escherichia coli [2]) | Activity [3] | zone of inhibition at 750 µg/mL (Aspergillus terreus [4]) | zone of inhibition at 1000 µg/mL (Aspergillus niger [5]) | zone of inhibition at 1000 µg/mL (Staphylococcus aureus [6]) | zone of inhibition at 750 µg/mL (Staphylococcus aureus [7]) | zone of inhibition at 1000 µg/mL (Aspergillus terreus [8]) | zone of inhibition at 500 µg/mL (Aspergillus flavus [9]) | zone of inhibition at 1000 µg/mL (Aspergillus flavus [10]) | zone of inhibition at 750 µg/mL (Aspergillus flavus [11]) | zone of inhibition at 500 µg/mL (Staphylococcus aureus [12]) | zone of inhibition at 500 µg/mL (Aspergillus niger [13]) | zone of inhibition at 750 µg/mL (Klebsiella pneumoniae [14]) | zone of inhibition at 750 µg/mL (Pseudomonas aeruginosa [15]) | zone of inhibition at 500 µg/mL (Aspergillus terreus [16]) | zone of inhibition at 750 µg/mL (Aspergillus oryzae [17]) | zone of inhibition at 1000 µg/mL (Pseudomonas aeruginosa [18]) | zone of inhibition at 500 µg/mL (Klebsiella pneumoniae [19]) | zone of inhibition at 1000 µg/mL (Aspergillus oryzae [20]) | further results
1 | Nc1n[nH]c2c1C(c1c(-c3ccccc3)[nH]c3ccc(Cl)cc13)C=C(c1ccc(Cl)cc1)O2 (stereo not drawn) | 10 mm | 14 mm | Active | 9 mm | 11 mm | 14 mm | 14 mm | 8 mm | 9 mm | 5 mm | 9 mm | 14 mm | 10 mm | 13 mm | 9 mm | 9 mm | 10 mm | 9 mm | 13 mm | 10 mm | zone of inhibition at 1000 µg/mL (Klebsiella pneumoniae [21]): 13 mm; zone of inhibition at 500 µg/mL (Escherichia coli [22]): 13 mm; zone of inhibition at 500 µg/mL (Pseudomonas aeruginosa [23]): 10 mm; Activity [24]: Active; zone of inhibition at 750 µg/mL (Aspergillus niger [25]): 10 mm; zone of inhibition at 750 µg/mL (Escherichia coli [26]): 13 mm
2 | Cc1ccc(C2=CC(c3c(-c4ccccc4)[nH]c4ccccc34)C(C#N)=C(N)O2)cc1 (stereo not drawn) | 5 mm | 10 mm | Active | 6 mm | 8 mm | 0 mm | 0 mm | 5 mm | 8 mm | 10 mm | 9 mm | 0 mm | 8 mm | 6 mm | 8 mm | 8 mm | 9 mm | 6 mm | 8 mm | 8 mm | zone of inhibition at 1000 µg/mL (Klebsiella pneumoniae [21]): 5 mm; zone of inhibition at 500 µg/mL (Escherichia coli [22]): 10 mm; zone of inhibition at 500 µg/mL (Pseudomonas aeruginosa [23]): 9 mm; Activity [24]: Active; zone of inhibition at 750 µg/mL (Aspergillus niger [25]): 8 mm; zone of inhibition at 750 µg/mL (Escherichia coli [26]): 10 mm
3 | Cc1ccc2[nH]c(-c3ccccc3)c(C3C=C(c4ccccc4)Oc4nc[nH]c(=O)c43)c2c1 (stereo not drawn) | 9 mm | 6 mm | Active | 3 mm | 4 mm | 10 mm | 10 mm | 3 mm | 8 mm | 8 mm | 8 mm | 11 mm | 5 mm | 5 mm | 5 mm | 4 mm | 9 mm | 5 mm | 5 mm | 9 mm | zone of inhibition at 1000 µg/mL (Klebsiella pneumoniae [21]): 5 mm; zone of inhibition at 500 µg/mL (Escherichia coli [22]): 8 mm; zone of inhibition at 500 µg/mL (Pseudomonas aeruginosa [23]): 5 mm; Activity [24]: Active; zone of inhibition at 750 µg/mL (Aspergillus niger [25]): 4 mm; zone of inhibition at 750 µg/mL (Escherichia coli [26]): 6 mm
